Usually melting point stands for the temperature of the solid-liquid transition.

From US8188301B2, “Disubstituted phenylpyrrolidines as modulators of cortical catecholaminergic neurotransmission” (NSAB, Filial af NeuroSearch Sweden AB, Sverige, priority 2007, dated 2012) come the findings set out here.

Where a name gives a salt, the structure may show the parent alone.

For the compound `CN1CCC(O)(c2ccc(F)c(F)c2)C1` (stereo not drawn) (as salt: fumaric acid salt), the melting point was in the range of 164 to 166 °C.

`CCN1CCC(O)(c2cccc(Cl)c2F)C1` (stereo not drawn) (as salt: fumaric acid salt) came in with a melting point of 142 to 145.5 °C.

Turning to `CCCN1CCC(O)(c2ccc(F)c(Cl)c2)C1` (stereo not drawn) (as salt: fumaric acid salt), the melting point turned out to be 157.9 °C.

The compound `CCN1CCC(O)(c2ccc(F)c(F)c2)C1` (stereo not drawn) (as salt: fumaric acid salt) displayed a melting point of 136 to 137 °C.

In turn, `CN1CCC(O)(c2cc(F)cc(Cl)c2)C1` (stereo not drawn) (as salt: fumaric acid salt) displayed a melting point of 129 to 131 °C.

`CC(C)N1CCC(O)(c2ccc(F)c(F)c2)C1` (stereo not drawn) (as salt: fumaric acid salt) yielded a melting point of 143 to 147 °C.

The compound `CCN1CCC(O)(c2ccc(F)c(Cl)c2)C1` (stereo not drawn) (as salt: fumaric acid salt) [Example 3, 3-(3-CHLORO-4-FLUOROPHENYL)-1-ETHYLPYRROLIDIN-3-OL] registered a melting point of 157 to 158 °C.

As to `CCN1CCC(O)(c2cccc(F)c2F)C1` (stereo not drawn) (as salt: fumaric acid salt) [Example 4, 3-(2,3-DIFLUOROPHENYL)-1-ETHYLPYRROLIDIN-3-OL], the melting point fell in the range of 119 to 120 °C.

For the compound `CCCN1CCC(O)(c2cc(F)cc(F)c2)C1` (stereo not drawn) (as salt: fumaric acid salt) [Example 9, 3-(3,5-DIFLUOROPHENYL)-1-PROPYLPYRROLIDIN-3-OL], the melting point was 136 to 137 °C.

`CCN1CCC(O)(c2ccc(Cl)c(Cl)c2)C1` (stereo not drawn) (as salt: fumaric acid salt) [Example 10, 3-(3,4-DICHLOROPHENYL)-1-ETHYLPYRROLIDIN-3-OL] yielded a melting point of 184 to 185 °C.

Compound `CCN1CCC(O)(c2ccc(F)c(F)c2)C1` (stereo not drawn) (as salt: fumaric acid salt) [Example 12, 3-(3,4-DIFLUOROPHENYL)-1-ETHYLPYRROLIDIN-3-OL] gave a melting point of 157 to 158 °C.

Regarding `CCCN1CCC(O)(c2ccc(F)c(F)c2)C1` (stereo not drawn) (as salt: fumaric acid salt) [Example 27], the melting point lay in the range of 127 to 129 °C.

`CCCN1CCC(O)(c2ccc(F)c(F)c2)C1` (stereo not drawn) (as salt: fumaric acid salt) [Example 28]: the melting point was 128 to 129 °C.

Take `CCCN1CCC(O)(c2cccc(F)c2F)C1` (stereo not drawn) (as salt: fumaric acid salt) [Example 33]: the melting point is 97 to 100 °C.

As for `CCCN1CCC(O)(c2cccc(F)c2F)C1` (stereo not drawn) (as salt: fumaric acid salt) [Example 34], the melting point lay within 95 to 98 °C.

Turning to `FC1(c2cc(Cl)cc(Cl)c2)CCNC1` (stereo not drawn) (as salt: hydrochloric acid salt) [Example 14, 3-(3,5-DICHLOROPHENYL)-3-FLUOROPYRROLIDINE], the melting point is 201 to 202 °C.

`Fc1cccc(C2(F)CCNC2)c1F` (stereo not drawn) (as salt: hydrochloric acid salt) [Example 23, 3-(2,3-DIFLUOROPHENYL)-3-FLUOROPYRROLIDINE] returned a melting point of 136 °C.

As for `CN1CCC(O)(c2ccc(F)cc2F)C1` (stereo not drawn) (as salt: oxalic acid salt), the melting point fell in the range of 117 to 119 °C.

Compound `CCN1CCC(O)(c2cccc(Cl)c2Cl)C1` (stereo not drawn) (as salt: oxalic acid salt) yielded a melting point of 206 to 207 °C.

Consider `CCCN1CCC(O)(c2cc(F)cc(Cl)c2)C1` (stereo not drawn) (as salt: oxalic acid salt), for which the melting point stood at 157.2 °C.

The compound `CCCCN1CCC(O)(c2cc(F)cc(F)c2)C1` (stereo not drawn) (as salt: oxalic acid salt) displayed a melting point of 146 to 147 °C.

As to `CN1CCC(O)(c2cccc(Cl)c2F)C1` (stereo not drawn) (as salt: oxalic acid salt), the melting point was 123 to 125 °C.

In turn, `CCN1CCC(O)(c2cc(F)cc(Cl)c2)C1` (stereo not drawn) (as salt: oxalic acid salt) [Example 5, 3-(3-CHLORO-5-FLUOROPHENYL)-1-ETHYLPYRROLIDIN-3-OL] registered a melting point of 169 to 170 °C.

The compound `CCCN1CCC(O)(c2ccc(F)c(F)c2)C1` (stereo not drawn) (as salt: oxalic acid salt) [Example 7, 3-(3,4-DIFLUOROPHENYL)-1-PROPYLPYRROLIDIN-3-OL] displayed a melting point of 131 to 132 °C.

In turn, `CN1CCC(F)(c2cc(F)cc(F)c2)C1` (stereo not drawn) (as salt: oxalic acid salt) [Example 11, 3-(3,5-DIFLUOROPHENYL)-3-FLUORO-1-METHYLPYRROLIDINE] registered a melting point of 128 to 129 °C.

Regarding `Fc1cc(F)cc(C2(F)CCNC2)c1` (stereo not drawn) (as salt: oxalic acid salt) [Example 13, 3-(3,5-DIFLUOROPHENYL)-3-FLUOROPYRROLIDINE], the melting point is 176 to 177 °C.

Compound `CN1CCC(O)(c2cc(F)cc(F)c2)C1` (stereo not drawn) (as salt: oxalic acid salt) [Example 18] displayed a melting point of 159 to 162 °C.

For `CCCN1CCC(O)(c2cc(F)cc(F)c2)C1` (stereo not drawn) (as salt: oxalic acid salt) [Example 29], the melting point was in the range of 117 to 118 °C.

Take `CCCN1CCC(O)(c2cc(F)cc(F)c2)C1` (stereo not drawn) (as salt: oxalic acid salt) [Example 30]: the melting point is 118 to 119 °C.

Compound `CCN1CCC(O)(c2cc(F)cc(Cl)c2)C1` (stereo not drawn) (as salt: oxalic acid salt) [Example 31] displayed a melting point of 117 to 118 °C.

Turning to `CCN1CCC(O)(c2cccc(Cl)c2F)C1` (stereo not drawn) (as salt: oxalic acid salt) [Example 35], the melting point was in the range of 71 to 74 °C.

In turn, `CCN1CCC(O)(c2cccc(Cl)c2F)C1` (stereo not drawn) (as salt: oxalic acid salt) [Example 37] displayed a melting point of 72 to 74 °C.

Compound `CCCCN1CCC(O)(c2cccc(F)c2F)C1` (stereo not drawn) (as salt: oxalic acid salt) [Example 38] had a melting point of 155.3 °C.

In turn, `CC(C)CN1CCC(O)(c2cccc(F)c2F)C1` (stereo not drawn) (as salt: oxalic acid salt) [Example 39] yielded a melting point of 176 °C.

For `CN1CCC(O)(c2cccc(F)c2F)C1` (stereo not drawn) (as salt: oxalic acid salt) [Example 40], the melting point stood at 134.3 °C.

Take `C=CCN1CCC(O)(c2cccc(F)c2F)C1` (stereo not drawn) (as salt: oxalic acid salt) [Example 41]: the melting point worked out at 120 °C.

`C=CCN1CCC(O)(c2cc(F)cc(F)c2)C1` (stereo not drawn) (as salt: oxalic acid salt) [Example 44]: the melting point was 102 to 103 °C.

On to `CC(C)CN1CCC(O)(c2cc(F)cc(F)c2)C1` (stereo not drawn) (as salt: oxalic acid salt) [Example 46], for which the melting point lay in the range of 162 to 163 °C.

`CN1CCC(O)(c2cc(F)cc(F)c2)C1` (stereo not drawn) (as salt: oxalic acid salt) [Example 47] returned a melting point of 134 to 135 °C.

Take `OC1(c2cccc(F)c2F)CCN(CC2CC2)C1` (stereo not drawn) (as salt: oxalic acid salt) [Example 49]: the melting point came to 172.8 °C.

As to `CN1CCC(O)(c2cc(F)cc(F)c2)C1` (stereo not drawn) (as salt: oxalic acid salt) [Example 52], the melting point stood at 150 °C.

`CC(C)CN1CCC(O)(c2cc(F)cc(F)c2)C1` (stereo not drawn) (as salt: oxalic acid salt) [Example 53] returned a melting point of 164 to 165 °C.

In the case of `C=CCN1CCC(O)(c2cc(F)cc(F)c2)C1` (stereo not drawn) (as salt: oxalic acid salt) [Example 55], the melting point was 104 to 105 °C.

As to `CCCCN1CCC(O)(c2cccc(F)c2F)C1` (stereo not drawn) (as salt: oxalic acid salt) [Example 58], the melting point lay within 157 to 158 °C.

For `CN1CCC(O)(c2cccc(F)c2F)C1` (stereo not drawn) (as salt: oxalic acid salt) [Example 59], the melting point lay within 131 to 132 °C.

`CC(C)CN1CCC(O)(c2cccc(F)c2F)C1` (stereo not drawn) (as salt: oxalic acid salt) [Example 61] returned a melting point of 168 to 169 °C.

Turning to `C=CCN1CCC(O)(c2cccc(F)c2F)C1` (stereo not drawn) (as salt: oxalic acid salt) [Example 62], the melting point is 119 to 120 °C.

Take `OC1(c2cccc(F)c2F)CCN(CC2CC2)C1` (stereo not drawn) (as salt: oxalic acid salt) [Example 64]: the melting point was in the range of 170 to 171 °C.

As to `CN1CCC(O)(c2cc(F)cc(Cl)c2)C1` (stereo not drawn) (as salt: oxalic acid salt) [Example 65], the melting point was 117 to 118 °C.

For the compound `CN1CCC(O)(c2cc(F)cc(Cl)c2)C1` (stereo not drawn) (as salt: oxalic acid salt) [Example 66], the melting point was 114 to 115 °C.

For `CCN1CCC(O)(c2cc(F)cc(Cl)c2)C1` (stereo not drawn) (as salt: oxalic acid salt) [Example 67], the melting point fell in the range of 113 to 114 °C.

`CCN1CCC(O)(c2cc(F)cc(F)c2)C1` (single isomer, unassigned; (+)) (as salt: oxalic acid salt) [Example 2, (+)-3-(3,5-DIFLUOROPHENYL)-1-ETHYLPYRROLIDIN-3-OL]: the melting point fell in the range of 137 to 139 °C.

`COCCN1CCC(O)(c2cc(F)cc(F)c2)C1` (single isomer, unassigned; (+)) (as salt: oxalic acid salt) [Example 54, (+)-3-(3,5-DIFLUOROPHENYL)-1-(2-METHOXYETHYL)PYRROLIDIN-3-OL] registered a melting point of 131 to 132 °C.

With `COCCN1CCC(O)(c2cccc(F)c2F)C1` (single isomer, unassigned; (+)) (as salt: oxalic acid salt) [Example 60, (+)-3-(2,3-DIFLUOROPHENYL)-1-(2-METHOXYETHYL)PYRROLIDIN-3-OL], the melting point is 149 to 150 °C.

On to `OC1(c2cccc(F)c2F)CCN(CCC(F)(F)F)C1` (single isomer, unassigned; (+)) (as salt: oxalic acid salt) [Example 63, (+)-3-(2,3-DIFLUOROPHENYL)-1-(3,3,3-TRIFLUOROPROPYL)PYRROLIDIN-3-OL], for which the melting point was 144 to 145 °C.

The compound `CCN1CCC(O)(c2cc(F)cc(F)c2)C1` (single isomer, unassigned; (-)) (as salt: oxalic acid salt) [Example 1, (−)-3-(3,5-DIFLUOROPHENYL)-1-ETHYLPYRROLIDIN-3-OL] came in with a melting point of 111 to 112 °C.

`CCN1CCC(O)(c2cccc(F)c2F)C1` (single isomer, unassigned; (-)) (as salt: oxalic acid salt) [Example 32, (−)-3-(2,3-DIFLUOROPHENYL)-1-ETHYLPYRROLIDIN-3-OL] showed a melting point of 118 to 120 °C.
